Here are results for three compounds from ChEMBL document CHEMBL6078679, “Structure-Guided Discovery of Subtype Selective SIRT6 Inhibitors with a β-Carboline Skeleton for the Treatment of Breast Cancer” (J Med Chem, 2024).

A word on the pIC50: it is −log10 of the IC50, conventionally taken in molar units. Low values mean a large IC50, high ones a small IC50.

Test [1] has as its target NAD-dependent protein deacylase sirtuin-5, mitochondrial (Homo sapiens, UniProt Q9NXA8). The test can be described thus: Inhibition of SIRT5 (unknown origin) deacetylation activity using Boc-Lys(Ac)-AMC as substrate incubated for 2 hrs by BioTek microplate reader analysis.
Test [2] deals with T1, NAD-dependent protein lipoamidase sirtuin-4, mitochondrial (Homo sapiens, UniProt Q9Y6E7).
T1 sequence (Q9Y6E7 whole entry): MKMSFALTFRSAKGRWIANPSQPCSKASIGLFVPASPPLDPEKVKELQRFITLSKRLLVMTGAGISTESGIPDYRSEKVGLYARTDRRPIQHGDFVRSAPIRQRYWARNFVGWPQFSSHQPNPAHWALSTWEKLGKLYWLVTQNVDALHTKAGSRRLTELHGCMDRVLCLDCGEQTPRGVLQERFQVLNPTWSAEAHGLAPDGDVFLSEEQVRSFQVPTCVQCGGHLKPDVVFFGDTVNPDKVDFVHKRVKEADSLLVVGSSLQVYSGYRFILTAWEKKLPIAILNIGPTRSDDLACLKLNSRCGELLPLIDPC
The test can be described thus: Inhibition of SIRT4 (unknown origin) deacetylation activity using Boc-Lys(Ac)-AMC as substrate incubated for 2 hrs by BioTek microplate reader analysis.

Test [3] concerns the target T2, NAD-dependent protein deacetylase sirtuin-2 (Homo sapiens, UniProt Q8IXJ6).
T2 sequence (Q8IXJ6 whole entry): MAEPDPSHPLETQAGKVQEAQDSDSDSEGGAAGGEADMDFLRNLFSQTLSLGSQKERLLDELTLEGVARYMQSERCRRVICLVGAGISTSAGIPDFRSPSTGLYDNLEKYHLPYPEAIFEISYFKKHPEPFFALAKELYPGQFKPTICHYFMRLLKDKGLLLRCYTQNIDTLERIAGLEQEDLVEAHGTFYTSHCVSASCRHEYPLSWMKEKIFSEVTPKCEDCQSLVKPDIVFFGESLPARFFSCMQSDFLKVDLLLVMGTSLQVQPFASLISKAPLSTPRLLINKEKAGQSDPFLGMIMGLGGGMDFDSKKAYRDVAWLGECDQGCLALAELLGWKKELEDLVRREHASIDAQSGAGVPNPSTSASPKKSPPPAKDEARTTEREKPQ
In words: Inhibition of SIRT2 (unknown origin) deacetylation activity using Boc-Lys(Ac)-AMC as substrate incubated for 2 hrs by BioTek microplate reader analysis.

In test [4] the target is T3, NAD-dependent protein deacetylase sirtuin-1 (Homo sapiens, UniProt Q96EB6).
T3 sequence (Q96EB6 whole entry): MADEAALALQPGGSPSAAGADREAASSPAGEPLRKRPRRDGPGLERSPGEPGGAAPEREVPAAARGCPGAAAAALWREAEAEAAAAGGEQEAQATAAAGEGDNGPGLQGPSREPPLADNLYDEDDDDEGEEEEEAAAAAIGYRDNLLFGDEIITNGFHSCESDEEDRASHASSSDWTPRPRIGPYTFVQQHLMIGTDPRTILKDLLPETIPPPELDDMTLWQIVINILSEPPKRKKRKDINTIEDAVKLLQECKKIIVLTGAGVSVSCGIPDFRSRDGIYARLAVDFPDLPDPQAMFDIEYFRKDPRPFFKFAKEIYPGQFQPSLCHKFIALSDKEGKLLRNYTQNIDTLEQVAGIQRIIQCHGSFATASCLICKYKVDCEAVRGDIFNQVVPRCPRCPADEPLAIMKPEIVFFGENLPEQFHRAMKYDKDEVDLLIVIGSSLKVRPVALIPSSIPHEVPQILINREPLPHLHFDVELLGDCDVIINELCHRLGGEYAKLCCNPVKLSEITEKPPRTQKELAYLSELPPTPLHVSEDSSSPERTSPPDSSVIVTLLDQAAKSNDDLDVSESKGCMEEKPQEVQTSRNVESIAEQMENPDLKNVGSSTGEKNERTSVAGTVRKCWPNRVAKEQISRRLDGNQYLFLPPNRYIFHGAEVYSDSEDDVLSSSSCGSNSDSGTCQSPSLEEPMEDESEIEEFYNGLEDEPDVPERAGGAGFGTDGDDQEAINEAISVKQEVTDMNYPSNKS
The test can be described thus: Inhibition of SIRT1 (unknown origin) deacetylation activity using Boc-Lys(Ac)-AMC as substrate incubated for 2 hrs by BioTek microplate reader analysis.

The target of test [5] is T4, NAD-dependent protein deacetylase sirtuin-7 (Homo sapiens, UniProt Q9NRC8).
T4 sequence (Q9NRC8 whole entry): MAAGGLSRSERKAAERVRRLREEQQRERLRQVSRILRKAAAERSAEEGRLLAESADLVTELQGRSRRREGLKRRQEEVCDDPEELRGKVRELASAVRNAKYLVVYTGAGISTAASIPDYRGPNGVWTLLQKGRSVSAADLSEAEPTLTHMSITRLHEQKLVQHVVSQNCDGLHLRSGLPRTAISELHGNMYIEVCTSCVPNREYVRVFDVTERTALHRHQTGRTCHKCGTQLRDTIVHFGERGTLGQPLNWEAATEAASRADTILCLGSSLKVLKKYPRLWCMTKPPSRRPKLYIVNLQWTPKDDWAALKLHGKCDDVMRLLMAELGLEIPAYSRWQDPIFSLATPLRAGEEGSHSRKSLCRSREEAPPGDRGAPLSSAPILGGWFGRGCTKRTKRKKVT
In words: Inhibition of SIRT7 (unknown origin) deacetylation activity using Boc-Lys(Ac)-AMC as substrate incubated for 2 hrs by BioTek microplate reader analysis.

The target in test [6] is T5, NAD-dependent protein deacetylase sirtuin-3, mitochondrial (Homo sapiens, UniProt Q9NTG7).
T5 sequence (Q9NTG7 whole entry): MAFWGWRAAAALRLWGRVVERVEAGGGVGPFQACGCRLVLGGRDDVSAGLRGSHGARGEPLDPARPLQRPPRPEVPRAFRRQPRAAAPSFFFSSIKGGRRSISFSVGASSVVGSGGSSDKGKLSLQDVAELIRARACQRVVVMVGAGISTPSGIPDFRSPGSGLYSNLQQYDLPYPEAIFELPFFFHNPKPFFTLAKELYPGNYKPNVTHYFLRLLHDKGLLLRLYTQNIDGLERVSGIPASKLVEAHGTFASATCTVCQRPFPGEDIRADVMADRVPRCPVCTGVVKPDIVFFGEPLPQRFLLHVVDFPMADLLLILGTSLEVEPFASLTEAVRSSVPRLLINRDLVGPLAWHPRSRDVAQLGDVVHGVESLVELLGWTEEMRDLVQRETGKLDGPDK
In words: Inhibition of full length N-terminal his-tagged SIRT3 (unknown origin) deacetylation activity expressed in Escherichia coli BL21 (DE3) using RHKK-Ac-AMC as substrate incubated for 2 hrs by FDL analysis relative to control.

pIC50: −log10 of the molar value.

Sequence of NAD-dependent protein deacylase sirtuin-5, mitochondrial (Q9NXA8 whole entry): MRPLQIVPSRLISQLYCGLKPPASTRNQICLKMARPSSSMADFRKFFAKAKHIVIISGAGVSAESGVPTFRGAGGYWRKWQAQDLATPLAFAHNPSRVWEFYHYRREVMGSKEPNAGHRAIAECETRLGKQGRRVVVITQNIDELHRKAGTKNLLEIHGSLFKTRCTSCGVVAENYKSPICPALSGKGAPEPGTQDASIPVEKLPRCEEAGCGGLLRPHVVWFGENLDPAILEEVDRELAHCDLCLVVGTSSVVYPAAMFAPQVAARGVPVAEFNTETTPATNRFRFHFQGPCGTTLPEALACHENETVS

Regarding `N#Cc1ccc(Cn2c3ccc(Cl)cc3c3cc(C(=O)NCc4ccccn4)ncc32)cc1`, the negative-log IC50 (pIC50) in test [1] is < 3.30; in test [2], 3.56; in test [3], 3.80; in test [4], 3.51; in test [5] it was < 3.30.

`COC(=O)c1cc2c(cn1)[nH]c1ccccc12` [BETA-CCM]: in test [6], the negative logarithm of the IC50 (pIC50) is < 4.00.

With `CC(/C=C/C(=O)NO)=C\[C@@H](C)C(=O)c1ccc(N(C)C)cc1` [TRICHOSTATIN], the pIC50 in test [6] is 5.10.
